Biological target: T1, human ferroportin (Homo sapiens, UniProt Q9NP59)
T1 construct: luciferase reporter (read with the Nano-Glo Luciferase Assay System); expressed in transfected cells; host or cells: CHO cells, stably transfected, expression induced with doxycycline
T1 sequence (Q9NP59 1-571): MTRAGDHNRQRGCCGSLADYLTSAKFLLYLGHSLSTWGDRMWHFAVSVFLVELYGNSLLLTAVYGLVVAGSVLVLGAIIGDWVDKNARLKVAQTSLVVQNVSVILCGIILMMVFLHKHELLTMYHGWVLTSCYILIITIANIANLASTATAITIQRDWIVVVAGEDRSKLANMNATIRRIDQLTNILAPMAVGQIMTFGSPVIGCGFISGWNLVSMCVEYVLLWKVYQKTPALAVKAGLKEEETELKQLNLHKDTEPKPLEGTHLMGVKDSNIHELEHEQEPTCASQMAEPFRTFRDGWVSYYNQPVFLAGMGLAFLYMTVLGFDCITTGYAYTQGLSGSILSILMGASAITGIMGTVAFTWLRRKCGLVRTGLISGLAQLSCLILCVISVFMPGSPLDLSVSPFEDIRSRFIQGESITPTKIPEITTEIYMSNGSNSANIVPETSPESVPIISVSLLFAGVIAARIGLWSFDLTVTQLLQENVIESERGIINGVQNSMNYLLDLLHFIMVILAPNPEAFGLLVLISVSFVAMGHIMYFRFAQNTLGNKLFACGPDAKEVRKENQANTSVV
Test: Biological in-vitro ferroportin internalization assay (luciferase reporter)
Type: cell-based
Details: average pEC50; stably-transfected CHO cell line expressing human ferroportin tagged to a luciferase reporter; 6 h incubation with test compound
Outline: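 Read-out is Nano-Glo luciferase signal after 6 h compound exposure, with average pEC50 derived. Cells are a stable CHO line carrying luciferase-tagged human ferroportin, pre-loaded 24 h with ferric ammonium citrate and doxycycline-induced for 24 h.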

pEC50 | Compound
7.4 | CN(CC(=O)NC(C)(C)C)c1nc(-c2cc3ccoc3cn2)nc2c1CCC2 [Compound 365, N-tert-butyl-2-[(2-{furo[2,3-c]pyridin-5-yl}-5H,6H,7H-cyclopenta[d]pyrimidin-4-yl)(methyl)amino]acetamide]
7.7 | CN(CC(=O)NC1(C)CCCC1)c1nc(-c2cc3cn[nH]c3cn2)nc2c1CCC2 [Compound 184, 2-[methyl(2-{1H-pyrazolo[3,4-c]pyridin-5-yl}-5H,6H,7H-cyclopenta[d]pyrimidin-4-yl)amino]-N-(1-methylcyclopentyl)acetamide]
7 | Cc1cnc(CCNC(=O)CN(C)c2nc(-c3ccccn3)nc3c2CCC3)n1C1CCC1 [Compound 69, N-[2-(1-cyclobutyl-5-methyl-1H-imidazol-2-yl)ethyl]-2-{methyl[2-(pyridin-2-yl)-5H,6H,7H-cyclopenta[d]pyrimidin-4-yl]amino}acetamide]
7.5 | C[C@H](C(=O)NC(C)(C)C)N(C)c1nc(-c2ccccn2)nc2c1CCC2 [Compound 51, (2R)—N-tert-butyl-2-{methyl[2-(pyridin-2-yl)-5H,6H,7H-cyclopenta[d]pyrimidin-4-yl]amino}propanamide]
8 | C[C@H](C(=O)NC(C)(C)C)N(C)c1nc(-c2cn(C)cn2)nc2c1CCC2 [Compound 112, (2R)—N-tert-butyl-2-{methyl[2-(1-methyl-1H-imidazol-4-yl)-5H,6H,7H-cyclopenta[d]pyrimidin-4-yl]amino}propanamide]
7.5 | CN(CC(=O)Nc1cccc(F)c1)c1nc(-c2cc3c(cn2)OCCO3)nc2c1CCC2 [Compound 282, 2-[(2-{2H,3H-[1,4]dioxino[2,3-c]pyridin-7-yl}-5H,6H,7H-cyclopenta[d]pyrimidin-4-yl)(methyl)amino]-N-(3-fluorophenyl)acetamide]
7.6 | CN(C)C(=O)COc1ccnc(-c2nc3c(c(N(C)CC(=O)NC(C)(C)C)n2)CCC3)c1 [Compound 403, 2-{[2-(4-{[(tert-butylcarbamoyl)methyl](methyl)amino}-5H,6H,7H-cyclopenta[d]pyrimidin-2-yl)pyridin-4-yl]oxy}-N,N-dimethylacetamide]
7.6 | COc1ccnc(-c2nc3c(c(N(C)CC(=O)Nc4ccc(C)nc4)n2)CCC3)c1 [Compound 200, 2-{[2-(4-methoxypyridin-2-yl)-5H,6H,7H-cyclopenta[d]pyrimidin-4-yl](methyl)amino}-N-(6-methylpyridin-3-yl)acetamide]
5.7 | CC(C)(C)NC(=O)CNc1nc(-c2ncccn2)nc2c1CCC2 [Compound 33, N-tert-butyl-2-{[2-(pyrimidin-2-yl)-5H,6H,7H-cyclopenta[d]pyrimidin-4-yl]amino}acetamide]
7.7 | COc1ccnc(-c2nc3c(c(N(C)CC(=O)Nc4ccc(F)cc4)n2)CCC3)c1 [Compound 189, N-(4-fluorophenyl)-2-{[2-(4-methoxypyridin-2-yl)-5H,6H,7H-cyclopenta[d]pyrimidin-4-yl](methyl)amino}acetamide]
6.9 | c1ccc(-c2nc3c(c(N4CC5CC(C4)c4ccccc45)n2)CCC3)nc1 [Compound 1, 10-[2-(pyridin-2-yl)-5H,6H,7H-cyclopenta[d]pyrimidin-4-yl]-10-azatricyclo[6.3.1.0^{2,7}]dodeca-2,4,6-triene]
8 | C[C@H](O)COc1ccnc(-c2nc3c(c(N(C)CC(=O)NC4(C)CCC4)n2)CCC3)c1 [Compound 378, 2-[(2-{4-[(2S)-2-hydroxypropoxy]pyridin-2-yl}-5H,6H,7H-cyclopenta[d]pyrimidin-4-yl)(methyl)amino]-N-(1-methylcyclobutyl)acetamide]
6.9 | CN(CC(=O)NC(C)(C)C)c1nc(-c2cc3scnc3cn2)nc2c1CCC2 [Compound 301, N-tert-butyl-2-[methyl(2-{[1,3]thiazolo[4,5-c]pyridin-6-yl}-5H,6H,7H-cyclopenta[d]pyrimidin-4-yl)amino]acetamide]
6.9 | c1ccc(-c2nc3c(c(N4CCc5ccccc5CC4)n2)CCC3)nc1 [Compound 83, 3-[2-(pyridin-2-yl)-5H,6H,7H-cyclopenta[d]pyrimidin-4-yl]-2,3,4,5-tetrahydro-1H-3-benzazepine]
7.8 | CN(CC(=O)N1CCCCC1)c1nc(-c2cc(OCC(C)(C)O)ccn2)nc2c1CCC2 [Compound 382, 2-({2-[4-(2-hydroxy-2-methylpropoxy)pyridin-2-yl]-5H,6H,7H-cyclopenta[d]pyrimidin-4-yl}(methyl)amino)-1-(piperidin-1-yl)ethan-1-oneide]
7.1 | COc1ccnc(-c2nc3c(c(N(C)CC(=O)N[C@@H]4CCCC[C@H]4O)n2)CCC3)c1 [Compound 141, N-[(1R,2R)-2-hydroxycyclohexyl]-2-{[2-(4-methoxypyridin-2-yl)-5H,6H,7H-cyclopenta[d]pyrimidin-4-yl](methyl)amino}acetamide]
7.7 | CN(CC(=O)NC1(C)CCCC1)c1nc(-c2cc(OCCO)ccn2)nc2c1CCC2 [Compound 179, 2-({2-[4-(2-hydroxyethoxy)pyridin-2-yl]-5H,6H,7H-cyclopenta[d]pyrimidin-4-yl}(methyl)amino)-N-(1-methylcyclopentyl)acetamide]
8.2 | CN(CC(=O)NC(C)(C)C)c1nc(-c2cc(O[C@@H]3CCN(CC(F)F)C3)ccn2)nc2c1CCC2 [Compound 491, N-tert-butyl-2-{[2-(4-{[(3R)-1-(2,2-difluoroethyl)pyrrolidin-3-yl]oxy}pyridin-2-yl)-5H,6H,7H-cyclopenta[d]pyrimidin-4-yl](methyl)amino}acetamide]
7.6 | Cc1cc(OCCO)cc(-c2nc3c(c(N(C)CC(=O)NC(C)(C)C)n2)CCC3)n1 [Compound 427, N-tert-butyl-2-({2-[4-(2-hydroxyethoxy)-6-methylpyridin-2-yl]-5H,6H,7H-cyclopenta[d]pyrimidin-4-yl}(methyl)amino)acetamide]
6.9 | COc1ccc(NC(=O)CN(C)c2nc(-c3cc(OC(F)F)ccn3)nc3c2CCC3)nc1 [Compound 217, 2-({2-[4-(difluoromethoxy)pyridin-2-yl]-5H,6H,7H-cyclopenta[d]pyrimidin-4-yl}(methyl)amino)-N-(5-methoxypyridin-2-yl)acetamide]
7.7 | CN1CC[C@H](Oc2ccnc(-c3nc4c(c(N(C)CC(=O)NC(C)(C)C)n3)CCC4)c2)C1 [Compound 438, N-tert-butyl-2-{methyl[2-(4-{[(3S)-1-methylpyrrolidin-3-yl]oxy}pyridin-2-yl)-5H,6H,7H-cyclopenta[d]pyrimidin-4-yl]amino}acetamide]
6.2 | CN1CCC(NC(=O)CN(C)c2nc(-c3ccccn3)nc3c2CCC3)C1=O (centres unmarked) [Compound 31, N-(1-methyl-2-oxopyrrolidin-3-yl)-2-{methyl[2-(pyridin-2-yl)-5H,6H,7H-cyclopenta[d]pyrimidin-4-yl]amino}acetamide]
6.9 | CN(C)CCOc1ccnc(-c2nc3c(c(N(C)CC(=O)NC(C)(C)C)n2)C(O)CC3)c1 (centres unmarked) [Compound 493, N-tert-butyl-2-[(2-{4-[2-(dimethylamino)ethoxy]pyridin-2-yl}-5-hydroxy-5H,6H,7H-cyclopenta[d]pyrimidin-4-yl)(methyl)amino]acetamide]
8.3 | CC(=O)NCCOc1ccnc(-c2nc3c(c(N(C)CC(=O)Nc4cccc(F)c4)n2)CCC3)c1 [Compound 356, 2-({2-[4-(2-acetamidoethoxy)pyridin-2-yl]-5H,6H,7H-cyclopenta[d]pyrimidin-4-yl}(methyl)amino)-N-(3-fluorophenyl)acetamide]
8 | CCC(C)(C)NC(=O)CN(C)c1nc(-c2cc(OCCO)ccn2)nc2c1CCC2 [Compound 367, 2-({2-[4-(2-hydroxyethoxy)pyridin-2-yl]-5H,6H,7H-cyclopenta[d]pyrimidin-4-yl}(methyl)amino)-N-(2-methylbutan-2-yl)acetamide]
7.4 | C[C@H](C(=O)Nc1cnn(C)c1)N(C)c1nc(-c2cc(OCCO)ccn2)nc2c1CCC2 [Compound 310, (2R)-2-({2-[4-(2-hydroxyethoxy)pyridin-2-yl]-5H,6H,7H-cyclopenta[d]pyrimidin-4-yl}(methyl)amino)-N-(1-methyl-1H-pyrazol-4-yl)propanamide]
5.4 | CCn1cncc1-c1nc2c(c(N(C)CC(=O)NC(C)(C)C)n1)CCC2 [Compound 194, N-tert-butyl-2-{[2-(1-ethyl-1H-imidazol-5-yl)-5H,6H,7H-cyclopenta[d]pyrimidin-4-yl](methyl)amino}acetamide]
6.3 | COc1ccc(NC(=O)CN(C)c2nc(-c3cc4cnccc4cn3)nc3c2CCC3)cn1 [Compound 258, N-(6-methoxypyridin-3-yl)-2-{methyl[2-(2,6-naphthyridin-3-yl)-5H,6H,7H-cyclopenta[d]pyrimidin-4-yl]amino}acetamide]
6.8 | CN(Cc1ncccn1)c1nc(-c2ccccn2)nc2c1CCC2 [Compound 81, N-methyl-2-(pyridin-2-yl)-N-[(pyrimidin-2-yl)methyl]-5H,6H,7H-cyclopenta[d]pyrimidin-4-amine]
